Experimental data from patent US9162992B2, “Compounds and compositions for treatment of breathing control disorders or diseases” (GALLEON PHARMACEUTICALS, INC., priority 2010, dated 2015).

Test: Stability across narrow pH 2-3.6 (1 mg/mL; 10 mM citric acid and glycine)
Type: physicochemical
Design: Assay: unit not given here
Conditions: for Impurities: in %
Method: Buffer solutions containing ca. 10 mM each of citric acid and glycine in the pH range 2-3.6 were prepared by titrating 250 mL of a single stock containing both buffer agents with 1N NaOH/1N HCl and removing 50 mL aliquots at predetermined pH values. (XXXVI) solutions at 1 mg/mL were prepared in the buffers by dissolving ˜25 mg of (XXXVI) in ca. 23 mL of a given buffer, adjusting the pH to the target and making up the volume to 25.0 mL in a volumetric flask. Each of the buffered (XXXV) solutions was filtered through a 0.2 μm polyether sulfone syringe filter into a volumetric flask previously rinsed with 70% ethanol and dried in a laminar flow hood. Following filtration, each buffered (XXXV) solution was split into 9 aliquots in 5 mL serum vials previously rinsed with 70% ethanol and dried in a laminar flow hood. Filtration and preparation of aliquots were performed in a laminar flow hood. Of the nine aliquots, three aliquots were stored at each 40° C. and 60° C., two aliquots were stored at 25° C. and one aliquot was submitted for T0 testing. Samples were evaluated for pH, assay and related substances at T0 and, following 1 week, 2 weeks and 4 weeks of storage at 40° C. and 60° C. Samples stored at 25° C. served as controls to be analyzed if necessary

With `CCCNc1nc(NCCC)nc(N(C)OC)n1` [XXXV, N-(4,6-Bis-n-propylamino-[1,3,5]triazin-2-yl)-N,O-dimethyl-hydroxylamine] the “pH dependence of impurity levels” value (40° C. and 60° C. storage, pH 2-3.6) was “impurity levels decreased significantly with increasing pH”, the “impurity levels at pH 2 vs. impurity levels at pH 3.6” value (pH range 2-3.6) was ≥ 10 fold and the Assay (target pH 2.0, 40° C. 1 wk) was 0.959. It also gave a pH (target pH 2.0, 40° C. 1 wk) of 2.00, an Impurities (target pH 2.0, 40° C. 1 wk) of 0.99 and an Assay (target pH 2.0, 40° C. 2 wk) of 0.955. It also gave a pH (target pH 2.0, 40° C. 2 wk) of 1.98, an Impurities (target pH 2.0, 40° C. 2 wk) of 1.55 and an Assay (target pH 2.0, 40° C. 4 wk) of 0.956. The pH (target pH 2.0, 40° C. 4 wk) was 1.98, the Impurities (target pH 2.0, 40° C. 4 wk) was 2.84 and the Assay (target pH 2.0, 60° C. 1 wk) was 0.913. For the same compound, the pH (target pH 2.0, 60° C. 1 wk) was 2.00, the Impurities (target pH 2.0, 60° C. 1 wk) was 3.87 and the Assay (target pH 2.0, 60° C. 2 wk) was 0.851. The pH (target pH 2.0, 60° C. 2 wk) was 1.97, the Impurities (target pH 2.0, 60° C. 2 wk) was 7.56 and the Assay (target pH 2.0, 60° C. 4 wk) was 0.768. The pH (target pH 2.0, 60° C. 4 wk) was 1.89, the Impurities (target pH 2.0, 60° C. 4 wk) was 13.99 and the Assay (target pH 2.0, initial) was 0.981. It also gave a pH (target pH 2.0, initial) of 2.00, an Impurities (target pH 2.0, initial) of 0.14 and an Assay (target pH 2.3, 40° C. 1 wk) of 0.984. The pH (target pH 2.3, 40° C. 1 wk) was 2.36, the Impurities (target pH 2.3, 40° C. 1 wk) was 0.47 and the Assay (target pH 2.3, 40° C. 2 wk) was 0.993. The pH (target pH 2.3, 40° C. 2 wk) was 2.32, the Impurities (target pH 2.3, 40° C. 2 wk) was 0.63 and the Assay (target pH 2.3, 40° C. 4 wk) was 0.995. For the same compound, the pH (target pH 2.3, 40° C. 4 wk) was 2.33, the Impurities (target pH 2.3, 40° C. 4 wk) was 1.70 and the Assay (target pH 2.3, 60° C. 1 wk) was 0.961. It also gave a pH (target pH 2.3, 60° C. 1 wk) of 2.36, an Impurities (target pH 2.3, 60° C. 1 wk) of 1.81 and an Assay (target pH 2.3, 60° C. 2 wk) of 0.932. It also gave a pH (target pH 2.3, 60° C. 2 wk) of 2.34, an Impurities (target pH 2.3, 60° C. 2 wk) of 3.53 and an Assay (target pH 2.3, 60° C. 4 wk) of 0.916. It also gave a pH (target pH 2.3, 60° C. 4 wk) of 2.28, an Impurities (target pH 2.3, 60° C. 4 wk) of 6.30 and an Assay (target pH 2.3, initial) of 0.987. The pH (target pH 2.3, initial) was 2.33, the Impurities (target pH 2.3, initial) was 0.09 and the Assay (target pH 2.7, 40° C. 1 wk) was 0.981. The pH (target pH 2.7, 40° C. 1 wk) was 2.73, the Impurities (target pH 2.7, 40° C. 1 wk) was 0.22 and the Assay (target pH 2.7, 40° C. 2 wk) was 0.985. It also gave a pH (target pH 2.7, 40° C. 2 wk) of 2.72, an Impurities (target pH 2.7, 40° C. 2 wk) of 0.37 and an Assay (target pH 2.7, 40° C. 4 wk) of 1.019. It also gave a pH (target pH 2.7, 40° C. 4 wk) of 2.73, an Impurities (target pH 2.7, 40° C. 4 wk) of 0.61 and an Assay (target pH 2.7, 60° C. 1 wk) of 0.978. It also gave a pH (target pH 2.7, 60° C. 1 wk) of 2.75, an Impurities (target pH 2.7, 60° C. 1 wk) of 0.97 and an Assay (target pH 2.7, 60° C. 2 wk) of 1.144. For the same compound, the pH (target pH 2.7, 60° C. 2 wk) was 2.74, the Impurities (target pH 2.7, 60° C. 2 wk) was 1.76 and the Assay (target pH 2.7, 60° C. 4 wk) was 0.987. The pH (target pH 2.7, 60° C. 4 wk) was 2.67, the Impurities (target pH 2.7, 60° C. 4 wk) was 3.09 and the Assay (target pH 2.7, initial) was 0.987. The pH (target pH 2.7, initial) was 2.72, the Assay (target pH 3.0, 40° C. 1 wk) was 1.01 and the pH (target pH 3.0, 40° C. 1 wk) was 3.04. For the same compound, the Impurities (target pH 3.0, 40° C. 1 wk) was 0.21, the Assay (target pH 3.0, 40° C. 2 wk) was 0.987 and the pH (target pH 3.0, 40° C. 2 wk) was 3.05. The Impurities (target pH 3.0, 40° C. 2 wk) was 0.34, the Assay (target pH 3.0, 40° C. 4 wk) was 1.027 and the pH (target pH 3.0, 40° C. 4 wk) was 3.04. The Impurities (target pH 3.0, 40° C. 4 wk) was 0.58, the Assay (target pH 3.0, 60° C. 1 wk) was 0.991 and the pH (target pH 3.0, 60° C. 1 wk) was 3.05. The Impurities (target pH 3.0, 60° C. 1 wk) was 0.61, the Assay (target pH 3.0, 60° C. 2 wk) was 0.975 and the Impurities (target pH 3.0, 60° C. 2 wk) was 1.27. The Assay (target pH 3.0, 60° C. 4 wk) was 0.987, the Impurities (target pH 3.0, 60° C. 4 wk) was 1.82 and the Assay (target pH 3.0, initial) was 1.005. The pH (target pH 3.0, initial) was 3.02, the Assay (target pH 3.3, 40° C. 1 wk) was 1.02 and the pH (target pH 3.3, 40° C. 1 wk) was 3.35. For the same compound, the Assay (target pH 3.3, 40° C. 2 wk) was 1.01, the pH (target pH 3.3, 40° C. 2 wk) was 3.35 and the Assay (target pH 3.3, 40° C. 4 wk) was 1.047. The pH (target pH 3.3, 40° C. 4 wk) was 3.34, the Impurities (target pH 3.3, 40° C. 4 wk) was 0.25 and the Assay (target pH 3.3, 60° C. 1 wk) was 0.997. It also gave a pH (target pH 3.3, 60° C. 1 wk) of 3.36, an Impurities (target pH 3.3, 60° C. 1 wk) of 0.41 and an Assay (target pH 3.3, 60° C. 2 wk) of 0.995. For the same compound, the pH (target pH 3.3, 60° C. 2 wk) was 3.37, the Impurities (target pH 3.3, 60° C. 2 wk) was 0.69 and the Assay (target pH 3.3, 60° C. 4 wk) was 1.027. It also gave a pH (target pH 3.3, 60° C. 4 wk) of 3.34, an Impurities (target pH 3.3, 60° C. 4 wk) of 1.26 and an Assay (target pH 3.3, initial) of 1.019. For the same compound, the pH (target pH 3.3, initial) was 3.31, the Assay (target pH 3.6, 40° C. 1 wk) was 0.991 and the pH (target pH 3.6, 40° C. 1 wk) was 3.64. It also gave an Assay (target pH 3.6, 40° C. 2 wk) of 0.985, a pH (target pH 3.6, 40° C. 2 wk) of 3.70 and an Assay (target pH 3.6, 40° C. 4 wk) of 0.991. The pH (target pH 3.6, 40° C. 4 wk) was 3.64, the Impurities (target pH 3.6, 40° C. 4 wk) was 0.17 and the Assay (target pH 3.6, 60° C. 1 wk) was 0.979. It also gave a pH (target pH 3.6, 60° C. 1 wk) of 3.65, an Impurities (target pH 3.6, 60° C. 1 wk) of 0.36 and a pH (target pH 3.6, 60° C. 2 wk) of 3.70. It also gave an Impurities (target pH 3.6, 60° C. 2 wk) of 0.62, a pH (target pH 3.6, 60° C. 4 wk) of 3.64 and an Impurities (target pH 3.6, 60° C. 4 wk) of 0.99. For the same compound, the Assay (target pH 3.6, initial) was 0.996, the pH (target pH 3.6, initial) was 3.62 and the Impurities (target pH 3.6, initial) was 0.12.
